{"source": "patent US8124788B2", "about": "“Spirocyclic cyclohexane compounds with analgesic activity” (Gruenenthal GmbH, priority 2006, dated 2012)", "data": [{"biological_target": "T1, human μ opiate receptor (Homo sapiens, UniProt P35372)", "T1 construct": "purchased PerkinElmer Life Sciences, Zaventem, Belgium RB-HOM; host or cells: CHO-K1 cells (recombinant expression)", "T1 sequence (P35372 whole entry)": "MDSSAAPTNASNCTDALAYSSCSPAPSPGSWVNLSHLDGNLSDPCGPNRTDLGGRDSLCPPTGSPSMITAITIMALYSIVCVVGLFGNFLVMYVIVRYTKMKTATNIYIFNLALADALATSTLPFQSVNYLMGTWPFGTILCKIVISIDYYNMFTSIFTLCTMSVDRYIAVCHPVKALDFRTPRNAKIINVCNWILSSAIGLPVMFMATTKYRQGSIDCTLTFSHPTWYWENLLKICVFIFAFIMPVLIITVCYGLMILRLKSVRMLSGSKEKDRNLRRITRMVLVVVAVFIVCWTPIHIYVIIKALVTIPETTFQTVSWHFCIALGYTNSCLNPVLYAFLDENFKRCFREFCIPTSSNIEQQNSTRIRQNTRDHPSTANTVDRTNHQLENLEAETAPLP", "experiment": "Affinity for the human μ opiate receptor ([3H]-naloxone displacement, CHO-K1 membrane preparation, SPA)", "format": "binding", "conditions": "1 μM test substance; displacement of [3H]-naloxone", "procedure": "(§1) The receptor affinity for the human μ opiate receptor is determined in a homogeneous set-up in microtitre plates. For this purpose, dilution series of the substances to be tested are incubated with a receptor membrane preparation (15-40 μg of protein/250 μl of incubation batch) of CHO-K1 cells which express the human μ opiate receptor (RB-HOM receptor membrane preparation from PerkinElmer Life Sciences, Zaventem, Belgium) in the presence of 1 nmol/l of the radioactive ligand [^3H]-naloxone (NET719, PerkinElmer Life Sciences, Zaventem, Belgium) and 1 mg of WGA-SPA-Beads (wheat germ agglutinin SPA beads from Amersham/Pharmacia, Freiburg, Germany) in a total volume of 250 μl for 90 minutes at room temperature. 50 mmol/l of Tris-HCl supplemented with 0.06% of bovine serum albumin are used as the incubation buffer. 100 μmol/l of naloxone are additionally added for determination of the non-specific binding. After the end of the ninety-minute incubation time, the microtitre plates are centrifuged for 20 minutes at 1,000 g and the radioactivity is measured in a β-counter (Microbeta-Trilum, PerkinElmer Wallac, Freiburg, Germany). The percentage displacement of the radioactive ligand from its binding to the human μ opiate receptor is determined at a concentration of the test substances of 1 μmol/l and stated as the percentage inhibition of the specific binding. Starting from the percentage displacement by various concentrations of the test substances, IC50 inhibitory concentrations which cause a 50 percent displacement of the radioactive ligand are calculated. By conversion by means of the Cheng-Prusoff relationship, Ki values for the test substances are obtained.", "units": {"μ opioid receptor [1 μM], % inhibition": "%"}, "values": [{"smiles": "Cc1ccc2[nH]c3c(c2c1)CC(C)OC31CCC(C(CCc2ccccc2)N(C)C)CC1", "note": "(centres unmarked) [Compound 43, 3,6-Dimethyl-1,1-[3-(dimethylamino-(phenylethyl)-methyl)-pentamethylene]-1,3,4,9-tetrahydropyrano[3,4-b]indole]", "μ opioid receptor [1 μM], % inhibition": 42}]}, {"biological_target": "T1, human μ opiate receptor", "experiment": "Affinity for the human μ opiate receptor ([3H]-naloxone displacement, CHO-K1 membrane preparation, SPA)", "format": "binding", "conditions": "compounds prepared via automated synthesis; single measurements at a test concentration of 1 μM", "procedure": "as §1", "units": {"μ opioid receptor [1 μmol], % inhibition": "%"}, "values": [{"smiles": "CN(C)C(c1ccc(F)cc1)C1CCC2(CC1)c1[nH]c3ccccc3c1CCN2C(=O)CCC1CCCC1", "note": "(centres unmarked) [Compound 85, 2-(3-cyclopentylpropanoyl)-{1,1-[3-(dimethylamino-(4-fluorophenyl)methyl)-pentamethylene]-3,4-dihydro-1H-2,9-diazafluorene}]", "μ opioid receptor [1 μmol], % inhibition": 50}, {"smiles": "CN(C)C(c1ccc(Cl)cc1)C1CCC2(CC1)c1[nH]c3ccccc3c1CCN2C(=O)Cc1cccc(Br)c1", "note": "(centres unmarked) [Compound 132, 2-[(3-bromophenyl)acetyl]-{1,1-[3-(dimethylamino-(4-chlorophenyl)-methyl)-pentamethylene]-3,4-dihydro-1H-2,9-diazafluorene}]", "μ opioid receptor [1 μmol], % inhibition": 65}, {"smiles": "CC(CC(=O)N1CCc2c([nH]c3ccccc23)C12CCC(C(c1ccc(F)cc1)N(C)C)CC2)c1ccccc1", "note": "(centres unmarked) [Compound 142, 1-{1,1-[3-(dimethylamino-(4-fluorophenyl)methyl) -pentamethylene]-3,4-dihydro-1H-2,9-diazafluoren-2-yl}-3-phenylbutan-1-one]", "μ opioid receptor [1 μmol], % inhibition": 30}, {"smiles": "CC(=Cc1ccccc1)C(=O)N1CCc2c([nH]c3ccccc23)C12CCC(C(c1ccc(Cl)cc1)N(C)C)CC2", "note": "(centres unmarked) [Compound 75, 1-{1,1-[3-(dimethylamino-(4-chlorophenyl)methyl) -pentamethylene]-3,4-dihydro-1H-2,9-diazafluoren-2-yl}-2-methyl-3-phenylprop-2-en-1-one]", "μ opioid receptor [1 μmol], % inhibition": 13}, {"smiles": "CC(Oc1ccccc1)C(=O)N1CCc2c([nH]c3ccccc23)C12CCC(C(c1ccc(F)cc1)N(C)C)CC2", "note": "(centres unmarked) [Compound 141, 2-(2-phenoxypropanoyl)-{1,1-[3-(dimethylamino-(4-fluorophenyl)methyl)-pentamethylene]-3,4-dihydro-1H-2,9-diazafluorene}]", "μ opioid receptor [1 μmol], % inhibition": 47}, {"smiles": "COCC(=O)N1CCc2c([nH]c3ccccc23)C12CCC(C(c1ccccc1)N(C)C)CC2", "note": "(centres unmarked) [Compound 81, 2-(methoxyacetyl)-{1,1-[3-(dimethylamino-phenylmethyl) -pentamethylene]-3,4-dihydro-1H-2,9-diazafluorene}]", "μ opioid receptor [1 μmol], % inhibition": 0}, {"smiles": "CC(C)CC(=O)N1CCc2c([nH]c3ccccc23)C12CCC(C(c1ccccc1)N(C)C)CC2", "note": "(centres unmarked) [Compound 138, 1-{1,1-[3-(dimethylamino-phenylmethyl)-pentamethylene]-3,4-dihydro-1H-2,9-diazafluoren-2-yl}-3-methylbutan-1-one]", "μ opioid receptor [1 μmol], % inhibition": 58}, {"smiles": "CN(C)C(c1ccccc1)C1CCC2(CC1)c1[nH]c3ccccc3c1CCN2C(=O)Cc1cccs1", "note": "(centres unmarked) [Compound 82, 2-(2-thienylacetyl)-{1,1-[3-(dimethylamino-phenylmethyl)-pentamethylene]-3,4-dihydro-1H-2,9-diazafluorene}]", "μ opioid receptor [1 μmol], % inhibition": 31}, {"smiles": "CN(C)C(c1ccc(Cl)cc1)C1CCC2(CC1)c1[nH]c3ccccc3c1CCN2C(=O)C1CC1", "note": "(centres unmarked) [Compound 96, 2-(cyclopropylcarbonyl)-{1,1-[3-(dimethylamino-(4-chlorophenyl)methyl)-pentamethylene]-3,4-dihydro-1H-2,9-diazafluorene}]", "μ opioid receptor [1 μmol], % inhibition": 18}, {"smiles": "CC(=Cc1ccccc1)C(=O)N1CCc2c([nH]c3ccccc23)C12CCC(C(c1cccc(F)c1)N(C)C)CC2", "note": "(centres unmarked) [Compound 68, 1-{1,1-[3-(dimethylamino-(3-fluorophenyl)methyl) -pentamethylene]-3,4-dihydro-1H-2,9-diazafluoren-2-yl}-2-methyl-3-phenylprop-2-en-1-one]", "μ opioid receptor [1 μmol], % inhibition": 19}, {"smiles": "COc1cccc(CC(=O)N2CCc3c([nH]c4ccccc34)C23CCC(C(c2ccc(F)cc2)N(C)C)CC3)c1", "note": "(centres unmarked) [Compound 140, 2-[(3-methoxyphenyl)acetyl]-{1,1-[3-(dimethylamino-(4-fluorophenyl)methyl)-pentamethylene]-3,4-dihydro-1H-2,9-diazafluorene}]", "μ opioid receptor [1 μmol], % inhibition": 47}, {"smiles": "CC(C)C(=O)N1CCc2c([nH]c3ccccc23)C12CCC(C(c1ccc(Cl)cc1)N(C)C)CC2", "note": "(centres unmarked) [Compound 119, 2-isobutyryl-{1,1-[3-(dimethylamino-(4-chlorophenyl)methyl)-pentamethylene]-3,4-dihydro-1H-2,9-diazafluorene}]", "μ opioid receptor [1 μmol], % inhibition": 40}, {"smiles": "CC(=O)N1CCc2c([nH]c3ccccc23)C12CCC(C(c1ccccc1)N(C)C)CC2", "note": "(centres unmarked) [Compound 79, 2-acetyl-{1,1-[3-(dimethylamino-phenylmethyl) -pentamethylene]-3,4-dihydro-1H-2,9-diazafluorene}]", "μ opioid receptor [1 μmol], % inhibition": 4}, {"smiles": "COc1ccc(CC(=O)N2CCc3c([nH]c4ccccc34)C23CCC(C(c2ccccc2)N(C)C)CC3)cc1OC", "note": "(centres unmarked) [Compound 57, 2-[(3,4-dimethoxyphenyl)acetyl]-{1,1-[3-(dimethylamino-phenylmethyl)-pentamethylene]-3,4-dihydro-1H-2,9-diazafluorene}]", "μ opioid receptor [1 μmol], % inhibition": 55}, {"smiles": "CCC(=O)N1CCc2c([nH]c3ccccc23)C12CCC(C(c1ccccc1)N(C)C)CC2", "note": "(centres unmarked) [Compound 102, 2-propionyl-{1,1-[3-(dimethylamino-phenylmethyl) -pentamethylene]-3,4-dihydro-1H-2,9-diazafluorene}]", "μ opioid receptor [1 μmol], % inhibition": 55}, {"smiles": "COCC(=O)N1CCc2c([nH]c3ccccc23)C12CCC(C(c1ccc(Cl)cc1)N(C)C)CC2", "note": "(centres unmarked) [Compound 97, 2-(methoxyacetyl)-{1,1-[3-(dimethylamino-(4-chlorophenyl)methyl)-pentamethylene]-3,4-dihydro-1H-2,9-diazafluorene}]", "μ opioid receptor [1 μmol], % inhibition": 20}, {"smiles": "CC(Oc1ccccc1)C(=O)N1CCc2c([nH]c3ccccc23)C12CCC(C(c1ccccc1)N(C)C)CC2", "note": "(centres unmarked) [Compound 137, 2-(2-phenoxypropanoyl)-{1,1-[3-(dimethylamino-phenylmethyl)-pentamethylene]-3,4-dihydro-1H-2,9-diazafluorene}]", "μ opioid receptor [1 μmol], % inhibition": 68}, {"smiles": "CN(C)C(c1ccccc1)C1CCC2(CC1)c1[nH]c3ccccc3c1CCN2C(=O)Cc1ccc(F)cc1", "note": "(centres unmarked) [Compound 104, 2-[(4-fluorophenyl)acetyl]-{1,1-[3-(dimethylamino-phenylmethyl)-pentamethylene]-3,4-dihydro-1H-2,9-diazafluorene}]", "μ opioid receptor [1 μmol], % inhibition": 39}, {"smiles": "CC(Oc1ccccc1)C(=O)N1CCc2c([nH]c3ccccc23)C12CCC(C(c1cccc(F)c1)N(C)C)CC2", "note": "(centres unmarked) [Compound 127, 2-(2-phenoxypropanoyl)-{1,1-[3-(dimethylamino-(3-fluorophenyl)methyl)-pentamethylene]-3,4-dihydro-1H-2,9-diazafluorene}]", "μ opioid receptor [1 μmol], % inhibition": 55}, {"smiles": "CC(CC(=O)N1CCc2c([nH]c3ccccc23)C12CCC(C(c1cccc(F)c1)N(C)C)CC2)c1ccccc1", "note": "(centres unmarked) [Compound 130, 1-{1,1-[3-(dimethylamino-(3-fluorophenyl)methyl) -pentamethylene]-3,4-dihydro-1H-2,9-diazafluoren-2-yl}-3-phenylbutan-1-one]", "μ opioid receptor [1 μmol], % inhibition": 49}, {"smiles": "CN(C)C(c1cccc(F)c1)C1CCC2(CC1)c1[nH]c3ccccc3c1CCN2C(=O)C=Cc1ccccc1Cl", "note": "(centres unmarked) [Compound 72, 1-{1,1-[3-(dimethylamino-(3-fluorophenyl)methyl) -pentamethylene]-3,4-dihydro-1H-2,9-diazafluoren-2-yl}-3-(2-chlorophenyl)prop-2-en-1-one]", "μ opioid receptor [1 μmol], % inhibition": 24}, {"smiles": "CN(C)C(c1ccc(F)cc1)C1CCC2(CC1)c1[nH]c3ccccc3c1CCN2C(=O)C1CCCC1", "note": "(centres unmarked) [Compound 109, 2-cyclopentylcarbonyl-{1,1-[3-(dimethylamino-(4-fluorophenyl)methyl)-pentamethylene]-3,4-dihydro-1H-2,9-diazafluorene}]", "μ opioid receptor [1 μmol], % inhibition": 21}, {"smiles": "CC(Oc1ccccc1)C(=O)N1CCc2c([nH]c3ccccc23)C12CCC(C(c1ccc(Cl)cc1)N(C)C)CC2", "note": "(centres unmarked) [Compound 133, 2-(2-phenoxypropanoyl)-{1,1-[3-(dimethylamino-(4-chlorophenyl)methyl)-pentamethylene]-3,4-dihydro-1H-2,9-diazafluorene}]", "μ opioid receptor [1 μmol], % inhibition": 71}, {"smiles": "CN(C)C(c1ccccc1)C1CCC2(CC1)c1[nH]c3ccccc3c1CCN2C(=O)COc1ccc(Cl)cc1", "note": "(centres unmarked) [Compound 60, 2-[(4-chlorophenoxy)acetyl]-{1,1-[3-(dimethylamino-phenylmethyl)-pentamethylene]-3,4-dihydro-1H-2,9-diazafluorene}]", "μ opioid receptor [1 μmol], % inhibition": 26}]}, {"biological_target": "T1, human μ opiate receptor", "experiment": "Affinity for the human μ opiate receptor ([3H]-naloxone displacement, CHO-K1 membrane preparation, SPA)", "format": "binding", "conditions": "compounds prepared via automated synthesis; single measurements at a test concentration of 1 μM; 1 µM", "procedure": "as §1", "units": {"μ opioid receptor [1 μmol], % inhibition": "%"}, "values": [{"smiles": "CN(C)C(c1ccc(Cl)cc1)C1CCC2(CC1)c1[nH]c3ccccc3c1CCN2C(=O)CCc1ccccc1", "note": "(centres unmarked) [Compound 135, (3-phenylpropanoyl)-1-{1,1-[3-(dimethylamino-(4-chlorophenyl)methyl)-pentamethylene]-3,4-dihydro-1H-2,9-diazafluorene}]", "μ opioid receptor [1 μmol], % inhibition": 38}]}]}
